Assay results reported in PubChem BioAssay AID2060600 (Molecular Pharmacology Branch, DTP, NCI, 2025).
Where “and” joins values, the source holds several entries; their conditions need not be identical. Equal values may be shown once. Values belong to the compound of their own block, whether it stands above or below them.

Tested on: 996289-038-R-J1-PDC complex spheroid viability
Assay: Anticancer human tumor 996289-038-R-J1-PDC patient-derived colon adenocarcinoma cell line growth inhibition [CLK]
Conditions: for viability, T/C: stronger effect = lower value
Summary of the method: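 Multi-cell-type spheroids combined patient-derived tumor cells with HUVEC endothelial cells and human mesenchymal stem cells. Paired agents were dosed in half-log steps down from about clinical Cmax, or from 10 microM where Cmax was unknown.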

[1] = curve of first compound, second compound 0.0316 µM
[2] = curve of first compound, second compound 0.1 µM
[3] = curve of first compound, second compound 0.316 µM
[4] = curve of first compound, second compound 1 µM
[5] = curve of first compound, second compound 3.16 µM
[6] = curve of first compound, second compound 10 µM
[7] = second compound 0.0316 µM, first compound 0.0316 µM
[8] = second compound 0.0316 µM, first compound 0.1 µM
[9] = second compound 0.0316 µM, first compound 0.316 µM
[10] = second compound 0.0316 µM, first compound 1 µM
[11] = second compound 0.0316 µM, first compound 3.16 µM
[12] = second compound 0.0316 µM, first compound 10 µM
[13] = second compound 0.1 µM, first compound 0.0316 µM
[14] = second compound 0.1 µM, first compound 0.1 µM
[15] = second compound 0.1 µM, first compound 0.316 µM
[16] = second compound 0.1 µM, first compound 1 µM
[17] = second compound 0.1 µM, first compound 3.16 µM
[18] = second compound 0.1 µM, first compound 10 µM
[19] = second compound 0.316 µM, first compound 0.0316 µM
[20] = second compound 0.316 µM, first compound 0.1 µM
[21] = second compound 0.316 µM, first compound 0.316 µM
[22] = second compound 0.316 µM, first compound 1 µM
[23] = second compound 0.316 µM, first compound 3.16 µM
[24] = second compound 0.316 µM, first compound 10 µM
[25] = second compound 1 µM, first compound 0.0316 µM
[26] = second compound 1 µM, first compound 0.1 µM
[27] = second compound 1 µM, first compound 0.316 µM
[28] = second compound 1 µM, first compound 1 µM
[29] = second compound 1 µM, first compound 3.16 µM
[30] = second compound 1 µM, first compound 10 µM
[31] = second compound 3.16 µM, first compound 0.0316 µM
[32] = second compound 3.16 µM, first compound 0.1 µM
[33] = second compound 3.16 µM, first compound 0.316 µM
[34] = second compound 3.16 µM, first compound 1 µM
[35] = second compound 3.16 µM, first compound 3.16 µM
[36] = second compound 3.16 µM, first compound 10 µM
[37] = second compound 10 µM, first compound 0.0316 µM
[38] = second compound 10 µM, first compound 0.1 µM
[39] = second compound 10 µM, first compound 0.316 µM
[40] = second compound 10 µM, first compound 1 µM
[41] = second compound 10 µM, first compound 3.16 µM
[42] = second compound 10 µM, first compound 10 µM
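Further: spheroids exposed to the agents for 7 days before readout.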

SMILES: CC(C)CC(NC(=O)C(Cc1ccccc1)NC(=O)c1cnccn1)B(O)O (stereo not drawn) + CN1CCN(c2cc(C(=O)Nc3cc4cc(-c5cnn(C)c5)ccc4cn3)ccn2)CC1
IC50 [1]: 4.69 nM
IC50 [2]: 3.9 nM
IC50 [3]: 2.03 nM
IC50 [4]: < 0.949 nM
IC50 [5]: < 0.949 nM
IC50 [6]: < 0.949 nM
viability, T/C (second compound 0.0316 µM, first compound 0.000949 µM): 119%
viability, T/C (second compound 0.0316 µM, first compound 0.003 µM): 77.7%
viability, T/C (second compound 0.0316 µM, first compound 0.00949 µM): 6.22%
viability, T/C (second compound 0.0316 µM, first compound 0.03 µM): 4.45%
viability, T/C (second compound 0.0316 µM, first compound 0.0949 µM): 2.91%
viability, T/C (second compound 0.0316 µM, first compound 0.3 µM): 0.26%
viability, T/C (second compound 0.1 µM, first compound 0.000949 µM): 97.5%
viability, T/C (second compound 0.1 µM, first compound 0.003 µM): 62.8%
viability, T/C (second compound 0.1 µM, first compound 0.00949 µM): 6.36%
viability, T/C (second compound 0.1 µM, first compound 0.03 µM): 0.64%
viability, T/C (second compound 0.1 µM, first compound 0.0949 µM): 0.55%
viability, T/C (second compound 0.1 µM, first compound 0.3 µM): 0.33%
viability, T/C (second compound 0.316 µM, first compound 0.000949 µM): 70.5%
viability, T/C (second compound 0.316 µM, first compound 0.003 µM): 39.5%
viability, T/C (second compound 0.316 µM, first compound 0.00949 µM): 2.17%
viability, T/C (second compound 0.316 µM, first compound 0.03 µM): 2.47%
viability, T/C (second compound 0.316 µM, first compound 0.0949 µM): 0.77%
viability, T/C (second compound 0.316 µM, first compound 0.3 µM): 1.41%
viability, T/C (second compound 1 µM, first compound 0.000949 µM): 2.7%
viability, T/C (second compound 1 µM, first compound 0.003 µM): 0.91%
viability, T/C (second compound 1 µM, first compound 0.00949 µM): 1.02%
viability, T/C (second compound 1 µM, first compound 0.03 µM): 0.56%
viability, T/C (second compound 1 µM, first compound 0.0949 µM): 0.24%
viability, T/C (second compound 1 µM, first compound 0.3 µM): 0.28%
viability, T/C (second compound 3.16 µM, first compound 0.000949 µM): 0.51%
viability, T/C (second compound 3.16 µM, first compound 0.003 µM): 0.34%
viability, T/C (second compound 3.16 µM, first compound 0.00949 µM): 0.26%
viability, T/C (second compound 3.16 µM, first compound 0.03 µM): 0.67%
viability, T/C (second compound 3.16 µM, first compound 0.0949 µM): 0.47%
viability, T/C (second compound 3.16 µM, first compound 0.3 µM): 0.21%
viability, T/C (second compound 10 µM, first compound 0.000949 µM): 0.41%
viability, T/C (second compound 10 µM, first compound 0.003 µM): 1.36%
viability, T/C (second compound 10 µM, first compound 0.00949 µM): 1.47%
viability, T/C (second compound 10 µM, first compound 0.03 µM): 1.13%
viability, T/C (second compound 10 µM, first compound 0.0949 µM): 0.38%
viability, T/C (second compound 10 µM, first compound 0.3 µM): 0.22%

SMILES: O=C(c1cc(Cc2n[nH]c(=O)c3ccccc23)ccc1F)N1CCN(C(=O)C2CC2)CC1 + CN1CCN(c2cc(C(=O)Nc3cc4cc(-c5cnn(C)c5)ccc4cn3)ccn2)CC1
IC50 [1]: > 10000 nM
IC50 [2]: > 10000 nM
IC50 [3]: > 10000 nM
IC50 [4]: < 31.6 nM
IC50 [5]: < 31.6 nM
IC50 [6]: < 31.6 nM
viability, T/C [7]: 92.9%
viability, T/C [8]: 109%
viability, T/C [9]: 91.9%
viability, T/C [10]: 110%
viability, T/C [11]: 104%
viability, T/C [12]: 100%
viability, T/C [13]: 84.9%
viability, T/C [14]: 97.3%
viability, T/C [15]: 84.6%
viability, T/C [16]: 89.2%
viability, T/C [17]: 92.7%
viability, T/C [18]: 87.8%
viability, T/C [19]: 57.9%
viability, T/C [20]: 65.9%
viability, T/C [21]: 73.4%
viability, T/C [22]: 58.4%
viability, T/C [23]: 67.9%
viability, T/C [24]: 60.4%
viability, T/C [25]: 3.61%
viability, T/C [26]: 4.51%
viability, T/C [27]: 5.54%
viability, T/C [28]: 3.94%
viability, T/C [29]: 3.05%
viability, T/C [30]: 5.36%
viability, T/C [31]: 1.23%
viability, T/C [32]: 1.19%
viability, T/C [33]: 2.64%
viability, T/C [34]: 1%
viability, T/C [35]: 0.92%
viability, T/C [36]: 1.35%
viability, T/C [37]: 0.69%
viability, T/C [38]: 1.28%
viability, T/C [39]: 0.88%
viability, T/C [40]: 2.07%
viability, T/C [41]: 0.54%
viability, T/C [42]: 2.19%

IC50 [1]: 1820 nM
IC50 [2]: 503 nM
IC50 [3]: 99.1 nM
IC50 [4]: < 31.6 nM
IC50 [5]: < 31.6 nM
IC50 [6]: < 31.6 nM
SMILES: C#Cc1c(F)ccc2cc(O)cc(-c3ncc4c(N5CC6CCC(C5)N6)nc(OCC56CCCN5CC(F)C6)nc4c3F)c12 (stereo not drawn) + CNC(=O)c1ccc(Nc2nc(OC3CCCC3)c3c(-c4ccc5nc(C)oc5c4)c[nH]c3n2)c(OC)c1
viability, T/C [7]: 107%
viability, T/C [8]: 93.2%
viability, T/C [9]: 71%
viability, T/C [10]: 62.4%
viability, T/C [11]: 40%
viability, T/C [12]: 29.3%
viability, T/C [13]: 106%
viability, T/C [14]: 77.1%
viability, T/C [15]: 55.9%
viability, T/C [16]: 42.4%
viability, T/C [17]: 32.2%
viability, T/C [18]: 30.5%
viability, T/C [19]: 60.7%
viability, T/C [20]: 50.4%
viability, T/C [21]: 35.6%
viability, T/C [22]: 28.3%
viability, T/C [23]: 25.5%
viability, T/C [24]: 22.4%
viability, T/C [25]: 33.8%
viability, T/C [26]: 26.5%
viability, T/C [27]: 25.4%
viability, T/C [28]: 21.5%
viability, T/C [29]: 22.1%
viability, T/C [30]: 20.6%
viability, T/C [31]: 28.3%
viability, T/C [32]: 24.3%
viability, T/C [33]: 24.5%
viability, T/C [34]: 21.4%
viability, T/C [35]: 22.9%
viability, T/C [36]: 17.8%
viability, T/C [37]: 28.7%
viability, T/C [38]: 23.1%
viability, T/C [39]: 20.2%
viability, T/C [40]: 22.3%
viability, T/C [41]: 22.8%
viability, T/C [42]: 17.9%

IC50 (compound alone, run of 08/15/2023): > 10000 nM and 8190 nM
SMILES: CNC(=O)c1ccc(Nc2nc(OC3CCCC3)c3c(-c4ccc5nc(C)oc5c4)c[nH]c3n2)c(OC)c1
viability, T/C (compound 0.0316 µM): 120% [middle of 12 runs]
viability, T/C (compound 0.1 µM): 119% [middle of 12 runs]
viability, T/C (compound 0.316 µM): 78.9% [middle of 12 runs]
viability, T/C (compound 1 µM): 62.1% [middle of 12 runs]
viability, T/C (compound 3.16 µM): 61.1% [middle of 12 runs]
viability, T/C (compound 10 µM): 63.1% [middle of 12 runs]
